Measurements published in US20260200920A1, “SUBSTITUTED AMINOPYRIDINE COMPOUNDS FOR USE AS AKT1 INHIBITORS” (Atavistik Bio, Inc., priority 2023, published 2026).

Assays:
[1] = biological target: T1, human recombinant kinase full-length wildtype AKT1 (Homo sapiens, UniProt P31749); test: AKT1 kinase assay (wildtype, TR-FRET, Lance); type: biochemical; conditions: 0.6 nM wildtype AKT1, 50 nM Ulight-CREBtide, either 50 μM ATP or 2 mM ATP, 60 min at RT
T1 construct: Purified human recombinant kinase full-length wildtype AKT1 was expressed in insect cells; made in house; host or cells: insect cells
T1 sequence (P31749 whole entry): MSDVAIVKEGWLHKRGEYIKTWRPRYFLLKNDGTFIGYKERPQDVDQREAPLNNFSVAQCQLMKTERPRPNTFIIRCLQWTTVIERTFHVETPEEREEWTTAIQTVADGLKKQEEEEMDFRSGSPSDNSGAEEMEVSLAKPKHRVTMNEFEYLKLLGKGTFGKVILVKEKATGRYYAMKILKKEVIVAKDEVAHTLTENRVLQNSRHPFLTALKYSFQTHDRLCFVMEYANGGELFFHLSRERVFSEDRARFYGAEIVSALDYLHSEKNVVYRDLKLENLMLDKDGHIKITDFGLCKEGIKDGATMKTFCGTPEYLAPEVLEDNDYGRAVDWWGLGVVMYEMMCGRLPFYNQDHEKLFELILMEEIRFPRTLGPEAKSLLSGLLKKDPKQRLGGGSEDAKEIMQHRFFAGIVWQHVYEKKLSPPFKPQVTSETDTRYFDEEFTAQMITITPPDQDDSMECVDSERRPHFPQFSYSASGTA
In short: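 Insect-cell-expressed full-length human AKT1, PDPK1-activated (0.6 nM), preincubated with compound 15 min at RT, then reacted 60 min at RT with 50 nM ULight-CREBtide and 50 μM or 2 mM ATP (pH 7.5, 1% DMSO). Phospho-CREBtide read by Eu-anti-phospho-Ser133 TR-FRET (665/620 ratio); IC50 from 10-point 4-parameter fit.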

[2] = biological target: T2, human recombinant kinase full-length AKT1 E17K (Homo sapiens, UniProt P31749, E17K); test: AKT1 E17K kinase assay (TR-FRET, Lance); type: biochemical; conditions: 0.6 nM AKT1 E17K, 50 nM Ulight-CREBtide, either 50 μM ATP or 2 mM ATP, 60 min at RT
T2 construct: Purified human recombinant kinase full-length AKT1 E17K was expressed in insect cells; made in house; host or cells: insect cells
T2 sequence (P31749 whole entry E17K): as the sequence (P31749 whole entry) above, with E17K counted along it
In short: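 Full-length AKT1 E17K from insect cells, PDPK1-activated, at 0.6 nM with 50 nM Ulight-CREBtide and 50 μM or 2 mM ATP, pH 7.5, 1% DMSO. Enzyme and compound preincubated 15 min, reaction run 60 min at RT; Eu-anti-phospho-CREB (Ser133) TR-FRET 665/620 ratio, 10-point curve, IC50 by 4-parameter fit.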

SMILES | IC50 [1] [µM] | IC50 [2] [nM]
Nc1ncccc1-c1nc2ccc(-c3ccccc3)nc2n1-c1ccc(C2CN(C[C@@H]3CC4CC3CC4C(=O)O)C2)cc1 (stereo partly shown) [Compound I-150] | < 20 | < 500
Nc1ncccc1-c1nc2ccc(-c3ccccc3)nc2n1-c1ccc(C2CN(CC3CC4CC(C(=O)O)CC4C3)C2)cc1 (stereo not shown) [Compound I-151] | < 20 | < 500
CNS(=O)(=O)C1CCC(CN2CC(c3ccc(-n4c(-c5cccnc5N)nc5ccc(-c6ccccc6)nc54)cc3)C2)CC1 (stereo not shown) [Compound I-152] | < 20 | 500 to 2000
Nc1ncccc1-c1nc2ccc(-c3ccccc3)nc2n1-c1ccc(C2CN(CC3CCC(CC(=O)O)CC3)C2)cc1 (stereo not shown) [Compound I-153] | < 20 | < 500
CC1(c2ccc(-n3c(-c4cccnc4N)nc4ccc(-c5ccccc5)nc43)cc2)CN(C[C@H]2CC[C@H](C(=O)O)CC2)C1 [Compound I-154] | < 20 | 500 to 2000
CC1(c2ccc(-n3c(-c4cccnc4N)nc4ccc(-c5ccccc5)nc43)cc2)CN(CC2CC3(C2)CC(C(=O)O)C3)C1 (stereo not shown) [Compound I-155] | < 20 | < 500
Cc1cc(C2(C)CN(C[C@H]3CC[C@H](C(=O)O)CC3)C2)ccc1-n1c(-c2cccnc2N)nc2ccc(-c3ccccc3)nc21 [Compound I-156] | < 20 | 500 to 2000
Cc1cc(C2(C)CN(CC3CC4(C3)CC(C(=O)O)C4)C2)ccc1-n1c(-c2cccnc2N)nc2ccc(-c3ccccc3)nc21 (stereo not shown) [Compound I-157] | < 20 | 500 to 2000
CN(CCc1ccc(-n2c(-c3cccnc3N)nc3ccc(-c4ccccc4)nc32)cc1)[C@H]1CC[C@H](C(=O)O)CC1 [Compound I-158] | < 20 | 500 to 2000
Nc1ncccc1-c1nc2ccc(-c3ccccc3)nc2n1-c1ccc(CCN2CCC(C(=O)O)C2)cc1 (stereo not shown) [Compound I-159] | < 20 | < 500
C[C@@H]1C[C@H](N(C)Cc2ccc(-n3c(-c4cccnc4N)nc4ccc(-c5ccccc5)nc43)c(F)c2)C[C@H](C)[C@H]1C(=O)O [Compound I-160] | < 20 | 500 to 2000
CN(Cc1ccc(-n2c(-c3cccnc3N)nc3ccc(-c4ccccc4)nc32)c(F)c1)C12CCC(C(=O)O)(CC1)CC2 [Compound I-161] | < 20 | < 500
CCN(Cc1ccc(-n2c(-c3cccnc3N)nc3ccc(-c4ccccc4)nc32)c(F)c1)[C@H]1CC[C@@H](C(=O)O)CC1 [Compound I-162] | < 20 | ≥ 2000
CCN(Cc1ccc(-n2c(-c3cccnc3N)nc3ccc(-c4ccccc4)nc32)c(F)c1)[C@H]1CC[C@H](C(=O)O)CC1 [Compound I-163] | < 20 | ≥ 2000
CN(Cc1ccc(-n2c(-c3cccnc3N)nc3ccc(-c4ccccc4)nc32)c(F)c1)[C@H]1CC[C@H](C(=O)O)CC1 [Compound I-164] | < 20 | 500 to 2000
CN(Cc1ccc(-n2c(-c3cccnc3N)nc3ccc(-c4ccccc4)nc32)c(F)c1)[C@H]1CC[C@@H](C(=O)O)CC1 [Compound I-165] | < 20 | < 500
CC(C)CN(Cc1ccc(-n2c(-c3cccnc3N)nc3ccc(-c4ccccc4)nc32)cc1)[C@H]1CC[C@H](C(=O)O)CC1 [Compound I-166] | < 20 | ≥ 2000
CCN(Cc1ccc(-n2c(-c3cccnc3N)nc3ccc(-c4ccccc4)nc32)cc1)[C@H]1CC[C@H](C(=O)O)CC1 [Compound I-167] | < 20 | 500 to 2000
CC(C)N(Cc1ccc(-n2c(-c3cccnc3N)nc3ccc(-c4ccccc4)nc32)cc1)[C@H]1CC[C@H](C(=O)O)CC1 [Compound I-168] | < 20 | ≥ 2000
CN(Cc1ccc(-n2c(-c3cccnc3N)nc3ccc(-c4ccccc4)nc32)cc1)[C@H]1CC[C@H](CC(=O)O)CC1 [Compound I-169] | < 20 | < 500
CN(Cc1ccc(-n2c(-c3cccnc3N)nc3ccc(-c4ccccc4)nc32)cc1)[C@@H]1CC[C@@H](C(=O)O)C1 [Compound I-170] | < 20 | < 500
CN(Cc1ccc(-n2c(-c3cccnc3N)nc3ccc(-c4ccccc4)nc32)cc1)C1CC[C@H](C(=O)O)C1 (stereo partly shown) [Compound I-172] | < 20 | < 500
CN(Cc1ccc(-n2c(-c3cccnc3N)nc3ccc(-c4ccccc4)nc32)cc1)C1CC[C@@H](C(=O)O)C1 (stereo partly shown) [Compound I-173] | < 20 | 500 to 2000
